From EPA's ToxValDB 9.5
In brackets after ≈: the same amount, converted by molar mass. Several values for one entry are separate records, joined by “and”; a condition that tells them apart may be missing. Identical values can stand only once.

Key:
Rattus norvegicus [1] = conditions: for NOEL / LOEL: Hershberger
Mus musculus = conditions: for LD50: acute
Rattus norvegicus [2] = conditions: for LD50 / LC50: acute
Rattus norvegicus [3] = conditions: subchronic; duration: 13 weeks; oral; diet; M/F; Fischer 344; Deaths + Clinical Observation: Soft stool, Diarrhea Redness around anus + Body Weight Changes: decrease + Food Consumption: decrease + Blood…
[4] = chronic, duration: 103 weeks, inhalation, Fischer 344
[5] = duration: 10 days, injection, subcutaneous, Fischer 344, active + Antiandrogenic + anti-androgenic
[6] = subchronic, duration: 6 weeks, oral, gavage, F, B6C3F1
[7] = subchronic, duration: 6 weeks, oral, gavage, M, B6C3F1
[8] = subchronic, duration: 6 weeks, oral, gavage, F, Osborne-Mendel
[9] = subchronic, duration: 6 weeks, oral, gavage, M, Osborne-Mendel
[10] = repeat dose other, inhalation, Fischer 344
[11] = short-term, duration: 14 days, oral, diet, B6C3F1
[12] = subchronic, duration: 13 weeks, oral, diet, B6C3F1
[13] = chronic, duration: 103 weeks, oral, diet, Fischer 344
[14] = short-term, duration: 14 days, oral, diet, Fischer 344
[15] = subchronic, duration: 13 weeks, oral, diet, Fischer 344
[16] = duration: 10 days, injection, subcutaneous, Sprague-Dawley, active + Androgenic + androgenic
[17] = duration: 10 days, oral, gavage, Wistar, active + Androgenic + androgenic
[18] = duration: 10 days, oral, gavage, wistar, active + Androgenic + androgenic

With Cl.N#Cc1ccc(C2CCCc3cncn32)cc1 (configuration not stated) the NOEL (Rattus norvegicus [1]; duration: 7 days, oral, gavage, Wistar, inactive + Negative + anti-androgenic + high dose decreased body wt but no effect on PPS or AST) was 6 mg/kg-day.
CCCCCCCCCCCCCCC1CO1 (configuration not stated) [1,2-Epoxyhexadecane] gave an LOAEL (Mus musculus; subchronic, duration: 13 weeks, dermal, B6C3F1) of 125 mg/kg-day, an LD50 (Rattus norvegicus [2]; dermal, occlusive, Sprague-Dawley) of 2000 mg/kg and an LD50 (Rattus norvegicus [2]; oral, gavage, Sprague-Dawley) of over 5000 mg/kg. It also gave an LOAEL (Rattus norvegicus [2]; subchronic, duration: 90 days, dermal, Fischer 344) of 125 mg/kg-day.
For CCCCCCCCCCCCCCCCCCN [1-Octadecanamine], the LD50 (Mus musculus; oral, gavage) was 1000 mg/kg, the LD50 (Rattus norvegicus [2]; oral, gavage) was 1000 mg/kg and > 2000 mg/kg and the LD50 (Rattus norvegicus [2]; oral, gavage, Sprague-Dawley) was 4800 mg/kg. The LD50 (Rattus norvegicus [2]; oral, gavage, Wistar) was at least 2000 mg/kg.
In the case of C=CC [1-Propene], the NOAEL (Mus musculus; chronic, duration: 14 weeks, inhalation, B6C3F1) is reported as 17200 mg/m3, the NOAEL (Mus musculus; chronic, duration: 78 weeks, inhalation, Swiss) is reported as at least 8610 mg/m3 and the NOAEL (Mus musculus; chronic, duration: 103 weeks, inhalation, B6C3F1) is reported as at least 17200 mg/m3. It also gave an LC50 (Rattus norvegicus [2]; inhalation, Sprague-Dawley) of over 112000 mg/m3, an NOAEL (Rattus norvegicus [2]; chronic, duration: 14 weeks, inhalation, Fischer 344) of 17200 mg/m3 and an LOAEL (Rattus norvegicus [2]; [4]) of 17200 mg/m3. For the same compound, the NOAEL (Rattus norvegicus [2]; [4]) was 8610 mg/m3, the NOAEL (Rattus norvegicus [2]; chronic, duration: 104 weeks, inhalation, Sprague-Dawley) was at least 8610 mg/m3 and the NOAEL (Rattus norvegicus [2]; short-term, duration: 4 weeks, inhalation, Fischer 344) was 17200 mg/m3.
O=C(c1ccc(O)cc1)c1ccc(O)cc1O [2,4,4'-Trihydroxybenzophenone] gave an LOEL (Rattus norvegicus [1]; [5]) of 300 mg/kg-day and an NOEL (Rattus norvegicus [1]; [5]) of 100 mg/kg-day.
O=S1(=O)CC=CC1 [2,5-Dihydrothiophene 1,1-dioxide] was tested, and the LOAEL (Mus musculus; [6]) was 316 mg/kg-day, the NOAEL (Mus musculus; [6]) was 178 mg/kg-day and the LOAEL (Mus musculus; [7]) was 1000 mg/kg-day. The NOAEL (Mus musculus; [7]) was 562 mg/kg-day, the LD50 (Rattus norvegicus [2]; oral, gavage, Sprague-Dawley) was 2880 mg/kg and the NOAEL (Rattus norvegicus [2]; reproduction developmental, duration: 28 days, oral, gavage, Crj:CD, generation: F0) was 75 mg/kg-day. It also gave an NOAEL (Rattus norvegicus [2]; reproduction developmental, duration: 28 days, oral, gavage, Crj:CD, generation: F1) of 25 mg/kg-day, an LOAEL (Rattus norvegicus [2]; [8]) of 178 mg/kg-day and an NOAEL (Rattus norvegicus [2]; [8]) of 100 mg/kg-day. It also gave an LOAEL (Rattus norvegicus [2]; [9]) of 562 mg/kg-day and an NOAEL (Rattus norvegicus [2]; [9]) of 316 mg/kg-day.
With C=CC(=O)OCCN(C)C [2-(Dimethylamino)ethyl acrylate] the LD50 (Mus musculus; injection, Intraperitoneal, NMRI) was 200 mg/kg, the LC50 (Rattus norvegicus [2]; Inhalation, Sprague-Dawley) was 0.066 µg/mL (≈ 0.461 µM) and the LD50 (Rattus norvegicus [2]; dermal) was 891 mg/kg. The LD50 (Rattus norvegicus [2]; dermal, semiocclusive, Sprague-Dawley) was 419 mg/kg, the LC50 (Rattus norvegicus [2]; inhalation) was 0.22 µg/mL and < 0.352 µg/mL and the LC50 (Rattus norvegicus [2]; inhalation, Wistar) was 0.972 µg/mL (≈ 6.79 µM). It also gave an LD50 (Rattus norvegicus [2]; injection, Intraperitoneal) of 183 mg/kg, an LD50 (Rattus norvegicus [2]; oral) of 533 mg/kg and an NOAEL (Rattus norvegicus [2]; developmental, oral, gavage, Crj:CD) of 30 mg/kg-day. It also gave an NOAEL (Rattus norvegicus [2]; reproduction developmental, duration: 43 days, oral, gavage, Sprague-Dawley) of 20 mg/kg-day, an NOAEL (Rattus norvegicus [2]; reproduction developmental, duration: 43 days, oral, gavage, Sprague-Dawley, generation: F0) of 100 mg/kg-day and an NOAEL (Rattus norvegicus [2]; subchronic, duration: 13 weeks, oral, gavage, Sprague-Dawley) of 10 mg/kg-day.
In the case of Clc1ccc(Cl)c(C(Cl)(Cl)Cl)n1 [3,6-Dichloro-2-(trichloromethyl)pyridine], the NOAEL (Mus musculus; repeat dose other, inhalation, B6C3F1) is reported as 3.47 mg/m3, the LD50 (Rattus norvegicus [2]; oral, gavage) is reported as ≥ 1000 mg/kg and ≤ 2000 mg/kg and the LOAEL (Rattus norvegicus [2]; [10]) is reported as 14.7 mg/m3. It also gave an NOAEL (Rattus norvegicus [2]; [10]) of 3.47 mg/m3.
Work on CCCCN(CCCC)c1cccc(O)c1 [3-(Dibutylamino)phenol] yielded an NOEL (Rattus norvegicus [1]; duration: 10 days, oral, gavage, Wistar, inactive + Negative + Negative + anti-androgenic + negative) of 300 mg/kg-day.
Compound Nc1ccc(C=Cc2ccc(N)cc2S(=O)(=O)[O-])c(S(=O)(=O)[O-])c1.[Na+].[Na+] [4,4'-Diamino-2,2'-stilbenedisulfonic acid, disodium salt] has an NOEL (Rattus norvegicus [3]) of under 600 mg/kg-day, an LOAEL (Mus musculus; [11]) of 50000 ppm and an NOAEL (Mus musculus; [11]) of 25000 ppm. The LOAEL (Mus musculus; [12]) was 4920 mg/kg-day, the NOAEL (Mus musculus; [12]) was 2460 mg/kg-day and the LD50 (Rattus norvegicus [2]; oral, gavage, Wistar) was over 5000 mg/kg. For the same compound, the LOAEL (Rattus norvegicus [2]; [13]) was 1950 mg/kg-day, the NOAEL (Rattus norvegicus [2]; [13]) was 975 mg/kg-day and the LOAEL (Rattus norvegicus [2]; [14]) was 50000 ppm. It also gave an NOAEL (Rattus norvegicus [2]; [14]) of 25000 ppm, an LOAEL (Rattus norvegicus [2]; [15]) of 4800 mg/kg-day and an NOAEL (Rattus norvegicus [2]; [15]) of 2400 mg/kg-day.
NNS(=O)(=O)c1ccc(Oc2ccc(S(=O)(=O)NN)cc2)cc1 [4,4'-Oxybis(benzenesulfohydrazide)] showed an LD50 (Mus musculus; injection, Intraperitoneal) of over 5000 mg/kg, an LD50 (Rattus norvegicus [2]; oral) of 2300 mg/kg and an LD50 (Rattus norvegicus [2]; oral, albino) of over 5200 mg/kg. It also gave an LOAEL (Rattus norvegicus [2]; chronic, duration: 4 months, oral, gavage) of 36 mg/kg-day.
O=[N+]([O-])c1ccc(O)cc1 [4-Nitrophenol] showed an LEL (Rattus norvegicus [1]; uterotrophic, duration: 7 days, injection, subcutaneous, Active) of 10 mg/kg-day.
C[C@]12C=CC3=C4CCC(=O)C=C4CC[C@H]3[C@@H]1CC[C@@H]2O [17beta-Trenbolone] was tested, and the LOEL (Rattus norvegicus [1]; [16]) was 200 mg/kg-day, the NOEL (Rattus norvegicus [1]; [16]) was 100 mg/kg-day and the LOEL (Rattus norvegicus [1]; duration: 10 days, oral, gavage, Sprague-Dawley, androgenic) was 40 mg/kg-day. It also gave an LOEL (Rattus norvegicus [1]; [17]) of 40 mg/kg-day, an NOEL (Rattus norvegicus [1]; [17]) of 8 mg/kg-day and an LOEL (Rattus norvegicus [1]; [18]) of 40 mg/kg-day. It also gave an NOEL (Rattus norvegicus [1]; [18]) of 8 mg/kg-day.
